Measured values published in patent US11850237B2, “Compounds and methods for treating influenza” (priority 2009, dated 2023).
pEC50: −log10 of the molar value. Values after ≈ are worked out from the molar mass of the structure shown. Like-named read-outs stand apart in the source and are kept apart here.

Columns and labels:
[1] = system: H1N1 A/PR/8/34 (PR8); assay: microbe, parasite or virus in culture; format: cell-based, influenza A virus; settings: for EC50 / EC90: Influenza A virus; for EC90: read-out: Virus Yield EC90; for antiviral activity against PR8, overall rating: PR8 influenza A virus, Table 1
[2] = system: MDCK cells; assay: Toxicity / cell viability by MTT in uninfected MDCK cells; format: cell-based, canine; settings: MDCK cells, MTT
Procedure: (§1) Cell culture, treatment and transfection-Madin-Darby canine kidney (MDCK) cells, and human A549 alveolar type II-like epithelial, Jurkat Tlymphoblastoid and U397 monocytic leukemia cells were grown at 37° C. in a 5% CO2 atmosphere in RPMI 1640 (Invitrogen), supplemented with 10% fetal calf serum (FCS), 2 mM glutamine and antibiotics. Test compounds were added immediately after 1-hour adsorption period, and kept in the culture medium for the entire time of the experiment, unless differently specified. […] Cell viability was determined by the 3-(4,5-dimethylthiazol-2-yl)-2,5-diphenyltetrazolium bromide (MTT) to MTT formazan conversion assay (Sigma-Aldrich) as described previously. Microscopical examination of mock-infected or virus-infected cells was performed using a Leica DM-IL microscope and images were captured on a Leica DC 300 camera using Leica Image-Manager500 software.

[3] = system: H1N1 A/PR/8/34 (PR8) virus; assay: microbe, parasite or virus in culture; format: cell-based, influenza A virus; settings: oseltamivir alone at test concentrations up to 1
[4] = biological target: viral hemagglutinin (HA0) (Influenza A virus, UniProt P03452); format: cell-based
[5] = Toxicity / cell viability by MTT in uninfected MDCK cells; format: cell-based, canine; settings: dog, uninfected MDCK cells; uninfected cells
Procedure: as §1

[6] = system: H1N1 A/PR/8/34 (PR8) virus; assay: microbe, parasite or virus in culture; format: cell-based, influenza A virus; settings: for PR8 Yield: Nitazoxanide 0 μg/ml
[7] = PR8, MDCK cells, read-out: Virus Yield EC50
[8] = MDCK, 24 h, read-out: EC50, inhibition of virus replication

Chain of viral hemagglutinin (HA0) (P03452 18-565 limits assumed): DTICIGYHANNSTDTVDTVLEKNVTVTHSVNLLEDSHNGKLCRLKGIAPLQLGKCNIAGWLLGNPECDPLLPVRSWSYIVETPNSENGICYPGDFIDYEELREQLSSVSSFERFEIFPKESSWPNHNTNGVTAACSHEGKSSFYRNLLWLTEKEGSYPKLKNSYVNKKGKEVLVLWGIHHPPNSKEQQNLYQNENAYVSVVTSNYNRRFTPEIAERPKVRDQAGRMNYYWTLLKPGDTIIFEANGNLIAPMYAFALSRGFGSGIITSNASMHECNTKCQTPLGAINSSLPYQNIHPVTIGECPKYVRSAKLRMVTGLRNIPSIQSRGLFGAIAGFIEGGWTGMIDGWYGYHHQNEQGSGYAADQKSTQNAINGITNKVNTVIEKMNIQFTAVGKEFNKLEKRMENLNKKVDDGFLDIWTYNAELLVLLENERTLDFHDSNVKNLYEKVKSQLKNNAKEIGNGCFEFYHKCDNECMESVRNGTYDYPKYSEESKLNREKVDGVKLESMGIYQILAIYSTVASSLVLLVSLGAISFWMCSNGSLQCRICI

Compound	EC50 [1, 7] [µg/mL]	EC90 ([1]; PR8, MDCK cells) [µg/mL]	Toxicity LD50 (MTT) [2] [µg/mL]	other results
CS(=O)(=O)c1cnc(NC(=O)c2ccc(O)cc2)s1 [Compound 64]	> 50	> 50	>50	–
CCOC(=O)C1=C[C@@H](OC(CC)CC)[C@H](NC(C)=O)[C@@H](N)C1 [oseltamivir, reference compound]	–	–	–	reduction (inhibition) of virus yield [3]: did not observe reduction
C[S+]([O-])c1csc(NC(=O)c2ccccc2O)n1 (centres unmarked) [Compound 30]	10 (≈ 35.4 µM)	> 50	>50	–
CS(=O)(=O)c1csc(NC(=O)c2cccc(O)c2)n1 [Compound 32]	> 50	> 50	>50	–
O=C(Oc1ccccc1C(=O)Nc1ncc([N+](=O)[O-])s1)c1ccccc1 [Compound 17]	3 (≈ 8.12 µM)	9 (≈ 24.4 µM)	>50	–
tunicamycin [TM, reference compound]	–	–	–	HA0 glycosylation (glucosamine, mannose incorporation) [4]: completely prevented HA0 glycosylation; intracellular HA0 levels / accumulation [4]: caused a decrease in HA0 accumulation
O=C(Nc1nc(S(=O)(=O)C2CCCCC2)cs1)c1ccccc1O [Compound 39]	10 (≈ 27.3 µM)	30 (≈ 81.9 µM)	>50	–
CSc1csc(NC(=O)c2ccc(OC(C)=O)cc2)n1 [Compound 33]	> 50	> 50	>50	–
CS(=O)(=O)c1cnc(NC(=O)c2ccccc2O)s1 [Compound 53]	10 (≈ 33.5 µM)	> 50	>50	–
CS(=O)(=O)c1cnc(NC(=O)c2cccc(O)c2)s1 [Compound 66]	> 50	> 50	>50	–
CS(=O)(=O)c1csc(NC(=O)c2ccc(O)cc2)n1 [Compound 35]	> 50	> 50	>50	–
CC(=O)Oc1ccc(C(=O)Nc2nc(S(C)(=O)=O)cs2)cc1 [Compound 34]	> 50	> 50	>50	–
CC(=O)Oc1ccccc1C(=O)Nc1nc(S(C)(=O)=O)cs1 [Compound 27]	0.1 (≈ 0.294 µM)	0.8 (≈ 2.35 µM)	>50	EC50 [1, 8]: 0.1 µg/mL (≈ 0.294 µM); potency relative to NTZ and TIZ ([1]; PR8, MDCK cells): 10 times; antiviral activity against PR8, overall rating [1]: potent and selective; CC50 [5]: > 50 µg/mL
CC(=O)Oc1ccc(C(=O)Nc2ncc(S(C)(=O)=O)s2)cc1 [Compound 63]	10 (≈ 29.4 µM)	> 50	>50	–
CC(=O)Oc1ccccc1C(=O)Nc1nc(S(=O)(=O)C2CCCCC2)cs1 [Compound 38]	25 (≈ 61.2 µM)	> 50	>50	–
CCCCS(=O)(=O)c1cnc(NC(=O)c2ccccc2OC(C)=O)s1 [Compound 59]	5 (≈ 13.1 µM)	30 (≈ 78.4 µM)	>50	–
CC(=O)Oc1ccccc1C(=O)Nc1ncc(S(=O)(=O)c2ccc([N+](=O)[O-])cc2)s1 [Compound 51]	3.5 (≈ 7.82 µM)	9 (≈ 20.1 µM)	30	–
CC(C)S(=O)(=O)c1csc(NC(=O)c2ccccc2O)n1 [Compound 37]	0.6 (≈ 1.84 µM)	15 (≈ 46 µM)	>50	antiviral activity against PR8, overall rating [1]: potent and selective
CCC(=O)Oc1ccccc1C(=O)Nc1ncc([N+](=O)[O-])s1 [Compound 16]	1 (≈ 3.11 µM)	8 (≈ 24.9 µM)	20	–
CC(C)COC(=O)Oc1ccccc1C(=O)Nc1ncc([N+](=O)[O-])s1 [Compound 14]	1 (≈ 2.74 µM)	8 (≈ 21.9 µM)	20	–
CC(=O)Oc1cccc(C(=O)Nc2nc(S(C)(=O)=O)cs2)c1 [Compound 31]	> 50	> 50	>50	–
CC(=O)Oc1cccc(C(=O)Nc2ncc(S(C)(=O)=O)s2)c1 [Compound 65]	> 50	> 50	>50	–
CC(=O)N[C@H]1[C@H]([C@H](O)[C@H](O)CO)OC(C(=O)O)=C[C@@H]1N=C(N)N [Zanamivir]	–	–	–	pEC50 ([6]; Influenza A virus, zanamivir alone, PR8, MDCK cells, read-out: EC50): 6.00; PR8 Yield ([6]; Zanamivir 0.01 μM): 48 HAU/ml; PR8 Yield ([6]; Zanamivir 0.1 μM): 48 HAU/ml; PR8 Yield ([6]; Zanamivir 1 μM): 24 HAU/ml; effect on viral replication ([6]; zanamivir alone at 0.1 μM): had no effect; reduction (inhibition) of virus yield ([6]; zanamivir alone at the highest test concentration of 1): 50%
CS(=O)(=O)c1csc(NC(=O)c2ccccc2O)n1 [Compound 28]	0.1 (≈ 0.335 µM)	0.7 (≈ 2.35 µM)	>50	EC50 [1, 8]: 0.1 µg/mL (≈ 0.335 µM); potency relative to NTZ and TIZ ([1]; PR8, MDCK cells): 10 times; antiviral activity against PR8, overall rating [1]: potent and selective; CC50 [5]: > 50 µg/mL
CC(=O)Oc1ccccc1C(=O)Nc1nc([S+](C)[O-])cs1 (centres unmarked) [Compound 29]	10 (≈ 30.8 µM)	> 50	>50	–
CC(=O)Oc1ccccc1C(=O)Nc1nc(S(=O)(=O)C(C)C)cs1 [Compound 36]	1 (≈ 2.71 µM)	8 (≈ 21.7 µM)	>50	antiviral activity against PR8, overall rating [1]: potent and selective
CCOC(=O)Oc1ccccc1C(=O)Nc1ncc([N+](=O)[O-])s1 [Compound 15]	1 (≈ 2.96 µM)	7 (≈ 20.8 µM)	30	–
CS(=O)(=O)c1cnc(NC(=O)c2ccccc2[O-])s1.[Na+] [Compound 54]	10	> 50	>50	–
O=C(Nc1ncc([N+](=O)[O-])s1)c1ccccc1[O-].[Na+] [Compound 3, tizoxanide sodium salt]	0.4	2.5	>50	antiviral activity against PR8, overall rating [1]: potent and selective
CC(=O)Oc1ccccc1C(=O)Nc1ncc(S(C)(=O)=O)s1 [Compound 52]	30 (≈ 88.1 µM)	> 50	>50	–
